Assay results reported in ChEMBL document CHEMBL5104167, “Development and profiling of mGlu7 NAMs with a range of saturable inhibition of agonist responses in vitro” (Bioorg Med Chem Lett, 2022).

Legend:
[1] = biological target: Metabotropic glutamate receptor 7 (Rattus norvegicus, UniProt P35400); assay: Negative allosteric modulation of rat mGlu7 in HEK cells expressing Galpha15 assessed as inhibition of L-AP4-induced response measured by calcium mobilization assay; type: functional, cell-based
[2] = biological target: T1, Metabotropic glutamate receptor 7 (Homo sapiens, UniProt Q14831)
[3] = biological target: T1, Metabotropic glutamate receptor 7; remark: listed apart in the source
[4] = Ratio of drug level in brain to plasma in rat; type: ADME, cell-free
[5] = Plasma protein binding in rat assessed as unbound fraction; type: ADME, cell-free
[6] = Drug concentration in rat brain assessed as unbound fraction; type: ADME, tissue-based
[7] = filed as negative allosteric modulator

T1 sequence (Q14831 whole entry): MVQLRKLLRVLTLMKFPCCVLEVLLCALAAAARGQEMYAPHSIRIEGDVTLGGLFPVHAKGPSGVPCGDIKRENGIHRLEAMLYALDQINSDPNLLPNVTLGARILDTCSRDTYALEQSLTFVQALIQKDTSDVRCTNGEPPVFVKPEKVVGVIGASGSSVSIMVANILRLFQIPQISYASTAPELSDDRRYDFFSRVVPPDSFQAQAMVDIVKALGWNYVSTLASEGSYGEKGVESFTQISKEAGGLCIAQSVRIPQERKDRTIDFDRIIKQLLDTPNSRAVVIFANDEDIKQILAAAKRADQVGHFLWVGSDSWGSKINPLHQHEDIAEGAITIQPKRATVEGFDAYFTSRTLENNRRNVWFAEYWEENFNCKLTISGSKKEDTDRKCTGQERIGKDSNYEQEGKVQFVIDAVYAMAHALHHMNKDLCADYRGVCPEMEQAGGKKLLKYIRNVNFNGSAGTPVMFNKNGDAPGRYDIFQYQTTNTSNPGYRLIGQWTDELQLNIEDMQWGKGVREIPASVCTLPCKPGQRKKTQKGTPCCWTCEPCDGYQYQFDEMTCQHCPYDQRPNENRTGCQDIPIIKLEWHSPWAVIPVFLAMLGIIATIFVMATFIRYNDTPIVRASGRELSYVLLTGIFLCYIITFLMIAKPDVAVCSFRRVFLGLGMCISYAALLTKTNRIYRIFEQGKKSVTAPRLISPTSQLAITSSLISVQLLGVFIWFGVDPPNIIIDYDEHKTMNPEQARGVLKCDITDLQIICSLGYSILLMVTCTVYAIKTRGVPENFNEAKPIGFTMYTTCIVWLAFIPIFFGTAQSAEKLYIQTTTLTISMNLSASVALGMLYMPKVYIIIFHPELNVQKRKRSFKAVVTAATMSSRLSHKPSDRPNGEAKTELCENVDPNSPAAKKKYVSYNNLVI
Sequence of Metabotropic glutamate receptor 7 (Rattus norvegicus, UniProt P35400) (P35400 whole entry): as the sequence (Q14831 whole entry) above, with R5G, A27V, N454H, S488T, A520S, D578N counted along it

| SMILES | IC50 [1] [µM] | Emin [3, 7] [%] | IC50 [2] [µM] | Emin [3] [%] | also measured |
| --- | --- | --- | --- | --- | --- |
| COc1ccc(-c2nnc(-c3cc(OC(F)(F)F)ccc3-n3cncn3)o2)cc1OC | 2 | 60 | 1.3 |  |  |
| COc1ccc(-c2noc(-c3cc(Cl)cc(F)c3-n3cncn3)n2)c(F)c1OC | 1 | 69 |  |  |  |
| COc1cc(C(=O)Nc2cc(OC(F)(F)F)ccc2-n2cncn2)ccc1OCC1CC1 |  |  |  |  | Kp [4]: 2.4 |
| COc1cc(C(=O)Nc2cc(OC(F)(F)F)ccc2-n2cncn2)ccc1OC1CCC1 | 1 |  | 3.1 | 19 |  |
| COc1ccc(-c2nnc(-c3cc(OC(F)(F)F)ccc3-n3ccnc3)o2)cc1OC |  |  | 3 | 0 | Kp [4]: 4.9 |
| COc1ccc(-c2nnc(-c3cc(OC(F)(F)F)ccc3-c3cn[nH]c3)o2)cc1OC | 2 |  | 5.4 | 26 |  |
| COc1ccc(-c2nnc(-c3cc(Cl)ccc3-c3ccnn3C)o2)cc1OC |  |  |  |  | Fu [5]: 3.9%; fraction unbound [6]: 0.009 |

Continued, in another order:

| IC50 [1] [µM] | Emin [3, 7] [%] | SMILES | IC50 [2] [µM] | Emin [3] [%] | also measured |
| --- | --- | --- | --- | --- | --- |
| > 10 | 45 | COc1ccc(-c2coc(-c3cc(OC(F)(F)F)ccc3-n3cncn3)n2)cc1OC |  |  |  |
| 0.263 |  | COc1cc(OCC(=O)Nc2cc(OC(F)(F)F)ccc2-n2cncn2)ccc1OC1COC1 | 0.819 | 21.1 |  |
| > 30 | 59 | COc1ccc(-c2noc(-c3cc(Cl)ccc3-n3cncn3)n2)c(F)c1OC |  |  |  |
| > 30 | 74 | COc1ccc(-c2noc(-c3cc(Cl)c(F)cc3-n3cncn3)n2)cc1OC |  |  |  |
| 2.4 |  | CCOC(=O)c1cnc2c(OC)cccc2c1-c1ccc(-c2cc(F)cnc2OC)nc1 | 4.57 | 22.4 |  |
